# Reference: patent US20120295917A1, “IMATINIB DICHL[…] ANTI-CANCER AGENT COMPRISING THE SAME” (CELLTRION PHARM, INC., priority 2009, published 2012)
# Key:
# [1] = Hygroscopicity test (Karl-Fischer titrator); assay type: physicochemical; settings: 40° C., relative humidity 75%
# [2] = tested on: colorectal adenocarcinoma cells (HT29); test: Cytotoxicity test (MTT); assay type: cell-based; settings: for absorbance value based on 100% of the absorbance value for the control: HT29, 72 hours, MTT, 570 nm, mean of n=3
# Description: Using a medium containing 10% of fetal bovine serum (FBS), Rosewell Park Memorial Institute medium (RPMI) and 1% of penicillin/streptomycin, a 2×10^5 cells/ml suspension of colorectal adenocarcinoma cells (HT29) was prepared. The prepared suspension was seeded into each well of […] and cultured for 24 hours. Each sample was added to three wells and cultured (n=3).
# The medium was removed from each well after 24 hours and the wells were washed with phosphate buffered saline (PBS). […] 100 µl of each prepared solution was seeded into the wells and cultured at 37° C. for 72 hours.
# 10 μl of 3-(4,5-dimethylthiazol-2-yl)-2,5-diphenyltetrazolium bromide (MTT) was added to each sample and cultured for 4 hours. The absorbance of the solution was measured at 570 nm using Enzyme-linked immunosorbent assay (ELISA).
# [3] = accelerated condition for 28 days; in words
# Description: Particularly, each imatinib acid addition salt was stored in a sealed state under an accelerated condition (a temperature of 40° C. and a relative humidity of 75%), and after 0 (zero), 3, 7, 14 and 28 days, the remaining rate of the active ingredient was analyzed with a high performance liquid chromatography (HPLC).
# rats = settings: cited from earlier work
amount of moisture contained in the compound ([1]; 2 hours) [weight %],amount of moisture contained in the compound ([1]; 8 hours) [weight %],amount of moisture contained in the compound ([1]; 24 hours) [weight %],amount of moisture contained in the compound ([1]; 3 days) [weight %],amount of moisture contained in the compound ([1]; Initial) [weight %],stability compared with imatinib methanesulfonate (β crystalline form) [3],Structure (SMILES),"anti-cancer effects compared with imatinib methanesulfonate (β crystalline form) ([2]; HT29 cytotoxicity, in words)",absorbance value based on 100% of the absorbance value for the control ([2]; 1 nM) [%],absorbance value based on 100% of the absorbance value for the control ([2]; 10 nM) [%],absorbance value based on 100% of the absorbance value for the control ([2]; 100 nM) [%],LD50 (the lethal dose causing death in 50% of rats on oral administration) (rats)
1.14,1.18,1.14,1.26,1.14,same or higher level of stability,Cc1ccc(NC(=O)c2ccc(CN3CCN(C)CC3)cc2)cc1Nc1nccc(-c2cccnc2)n1 [Imatinib dichloroacetate (crystalline form I)],more potent anti-cancer effects,–,–,–,–
0.83,0.87,0.86,0.95,0.85,same or higher level of stability,Cc1ccc(NC(=O)c2ccc(CN3CCN(C)CC3)cc2)cc1Nc1nccc(-c2cccnc2)n1 [Imatinib dichloroacetate (crystalline form II)],–,–,–,–,–
0.89,0.86,0.84,1.11,0.83,–,"CS(=O)(=O)O.Cc1ccc(NC(=O)c2ccc(CN3CCN(C)CC3)cc2)cc1Nc1nccc(-c2cccnc2)n1 [Imatinib Methanesulfonate, reference compound]",–,–,–,–,–
–,–,–,–,–,–,O=C(O)C(Cl)Cl [dichloroacetic acid],–,101.2,98.6,95.2,"2,820 mg/kg"
